Assays:
Assay type in all cases: cell-based
[1] = tested on: DU145; experiment: Proliferation assay (crystal violet), DU145; conditions: Homo sapiens, DU-145, 96 h; DU145 cells; 4 days incubation; crystal violet staining; read-out: IC50 inhibition of proliferation, DU145
Method in brief: (§1)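 Seed 1000–5000 cells/well, 10% FCS; 24 h later replace medium and add compound (0.001–10 μM, 0.5% DMSO); incubate 4 d; glutaraldehyde fix, 0.1% crystal violet pH 3.0, elute with 10% acetic acid; A595; 4-parameter IC50.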

[2] = tested on: Caco-2; experiment: Proliferation assay (crystal violet), Caco-2; conditions: Homo sapiens, 96 h; Caco-2 cells; 4 days incubation; crystal violet staining; read-out: IC50 inhibition of proliferation, Caco2
Method in brief: as §1

[3] = tested on: HeLa-MaTu-ADR; experiment: Proliferation assay (crystal violet), HeLa-MaTu-ADR; conditions: 96 h; HeLa-MaTu-ADR cells; 4 days incubation; crystal violet staining; read-out: IC50 inhibition of proliferation, HeLa-MaTu-ADR
Method in brief: as §1

[4] = tested on: NCI-H460; experiment: Proliferation assay (crystal violet), NCI-H460; conditions: Homo sapiens, 96 h; NCI-H460 cells; 4 days incubation; crystal violet staining; read-out: IC50 inhibition of proliferation, NCI-H460
Method in brief: as §1

[5] = tested on: B16F10; experiment: Proliferation assay (crystal violet), B16F10; conditions: Mus musculus, B16-F10, 96 h; B16F10 cells; 4 days incubation; crystal violet staining; read-out: IC50 inhibition of proliferation, B16F10
Method in brief: as §1

| SMILES | IC50 [1] | IC50 [2] | IC50 [3] | IC50 [4] | IC50 [5] |
| --- | --- | --- | --- | --- | --- |
| Cc1nsc(Nc2ccc(C#N)cn2)c1C(=O)Nc1ccc(OC2CCCN(CC(F)F)C2)nc1 (stereo not drawn) [Example 39, 5-[(5-Cyanopyridin-2-yl)amino]-N-(6-{[1-(2,2-difluoroethyl)piperidin-3-yl]oxy}-pyridin-3-yl)-3-methyl-1,2-thiazole-4-carboxamide] | 2000 nM | 1500 nM | 810 nM | 990 nM | 2200 nM |
| Cc1nsc(Nc2ccc(C#N)cn2)c1C(=O)Nc1ccc(OC2CCCN(CC(F)(F)F)C2)nc1 (stereo not drawn) [Example 40, 5-[(5-Cyanopyridin-2-yl)amino]-3-methyl-N-(6-{[1-(2,2,2-trifluoroethyl)piperidin-3-yl]oxy}pyridin-3-yl)-1,2-thiazole-4-carboxamide] | 660 nM | 500 nM | 320 nM | 360 nM | 780 nM |
| COCCOc1ccc(NC(=O)c2c(C)nsc2Nc2nc3c(C(F)(F)F)cccc3s2)cc1F [Example 1, N-[3-Fluoro-4-(2-methoxyethoxy)phenyl]-3-methyl-5-{[4-(trifluoromethyl)-1,3-benzothiazol-2-yl]amino}-1,2-thiazole-4-carboxamide] | 440 nM | 260 nM | 370 nM | 240 nM | 410 nM |

The remaining lines, values ahead:

| IC50 [1] | IC50 [2] | IC50 [3] | IC50 [4] | IC50 [5] | SMILES |
| --- | --- | --- | --- | --- | --- |
| 1100 nM | 650 nM | 590 nM | 460 nM | 910 nM | Cc1nsc(Nc2cnc3ccccc3n2)c1C(=O)Nc1cccc(C(=O)OC(C)(C)C)c1 [Example 49, tert-Butyl 3-({[3-methyl-5-(quinoxalin-2-ylamino)-1,2-thiazol-4-yl]carbonyl}amino)-benzoate] |
| 860 nM | 330 nM | 330 nM | 400 nM | 550 nM | Cc1nsc(Nc2ccc(C#N)cn2)c1C(=O)Nc1ccc(OC2CCCN(C(=O)OC(C)(C)C)C2)nc1 (stereo not drawn) [Example 36, tert-Butyl 3-({5-[({5-[(5-cyanopyridin-2-yl)amino]-3-methyl-1,2-thiazol-4-yl}-carbonyl)amino]pyridin-2-yl}oxy)piperidine-1-carboxylate] |
| 520 nM | 350 nM | 370 nM | 250 nM | 350 nM | Cc1nsc(Nc2cnc(C(F)(F)F)cn2)c1C(=O)Nc1ccc(OC2CCN(C(=O)OC(C)(C)C)CC2)nc1 [Example 5, tert-Butyl 4-[(5-{[(3-methyl-5-{[5-(trifluoromethyl)pyrazin-2-yl]amino}-1,2-thiazol-4-yl)carbonyl]amino}pyridin-2-yl)oxy]piperidine-1-carboxylate] |

— patent US20170334899A1, “AMINO-SUBSTITUTED ISOTHIAZOLES” (Bayer Pharma Aktiengesellschaft, priority 2014, published 2017)
